Tests used:
Assay type in all cases: physicochemical
[1] = Distribution ratio of cesium extracted in organic solutions of crown ethers (Table 1); conditions: crown ether 0.1 mole/l in Fluoroheptanol n3; Sr and Cs 1 g/l, nitric acid about 3.0 mol/l
Description: (§1) Study was carried out for determining the distribution ratios of radionuclides, for example, strontium or cesium to be extracted by the extractants according to the invention containing various crown ethers as a complexing agent: bis(tert-butylbenzo)-18-crown-6 (subsequently referred to as DTBDB18C6), di-isooctylbenzo-18-crown-6 (subsequently referred to as DIODB18C6), bis(tert-butylcyclohexane-18-crown-6 (subsequently referred to as DTBDCH18C6), di-isooxyldicyclohexane-18-crown-6 (subsequently referred to as DIODCH18C6), bicyclohexane-18-crown-6 (subsequently referred to as DCH18C6) or dibenzo-21-crown-7 (subsequently referred to as DB21C7), in an organic solvent according to the invention: polyfluorinated telomeric alcohol 1,1,7-trihydrododecafluoroheptanol-1 (subsequently referred to as fluoroheptanol n3).
(§2) For comparison, the distribution ratios of strontium and cesium were determined using extractants containing similar crown ethers in another organic solvent (decane).
(§3) Taken for the tests were experimental aqueous nitrate solutions containing strontium and cesium in a concentration of 1 g/l with a content of nitric acid of about 3.0 mol/l.

[2] = Extraction of cesium under dynamic conditions (7.2)
Source text: (§4) The scheme of the process and the conditions of extraction of cesium by the method according to the invention are similar to those described above in 7.1, but the organic phase for extraction of cesium includes solutions DB21C7 in a concentration of about 0.05 mol/l in an organic solvent containing synthanol in an amount of 5% by volume and Fluoroheptanol n3 in an amount of about 95% by volume.
(§5) During the operation of the experimental facility radiometric monitoring devices were used to control the concentration of strontium in the refined products, re-extracts and reclaims, as well as the concentration of the crown ethers in the extracted products. The technological characteristics of the process and solubility of the crown ether (averaged values of several experiments) are given in Table 16.

[3] = Influence of nitric acid concentration on cesium extraction from solution No.1; conditions: for Distribution ratios of cesium: solution No.1
Source text: The dependence of extraction of cesium by organic solutions DTBDB18C6 in fluoropentanol n3 and DB21C7 in Fluoroheptanol n3 at a concentration of nitric acid in a starting solution was studied. Solution No.1 whose composition is listed in Table 2 was used as a starting solution.

[4] = Concentration of crown ether in extracted products, dynamic cesium extraction (7.2)
Source text: as §4, §5

[5] = Extraction of strontium in a dynamic countercurrent mode (7.1)
Source text: A starting aqueous solution whose composition and concentration of the components are given in Table 3 for a solution No.1 was contacted with the extractant according to the invention containing 0.05 mole/l of DCH18C6 in a solvent containing 20% by volume of synthanol and 80% by volume of Fluoroheptanol n3 in a continuous countercurrent process on a facility with extractors such as “mixer-settler” devices with impulse agitation and phase transportation. The extraction included eight steps of extraction, two washing steps, eight re-extraction steps and two steps of regeneration of the reused extractant.
When running the facility, radiometric monitoring devices were used to control the concentration of strontium in the refined products, re-extracts and reclaims, as well as the concentration of the crown ethers in the extracted products.

[6] = Distribution ratio of strontium extracted in organic solutions of crown ethers (Table 1); conditions: crown ether 0.1 mole/l in Fluoroheptanol n3; Sr and Cs 1 g/l, nitric acid about 3.0 mol/l
Description: as §1, §2, §3

SMILES: c1ccc2c(c1)OCCOCCOCCOc1ccccc1OCCOCCO2 [DB21C7, dibenzo-21-crown-7]
- Distribution ratio Cesium [1]: 10.7
- Content of cesium in the extracted products in percent of the feedstock ([2]; Re-extract): 94.5% of the feedstock
- Content of cesium in the extracted products in percent of the feedstock ([2]; Reclaim): 4.15% of the feedstock
- Content of cesium in the extracted products in percent of the feedstock ([2]; Refined product, 0.05 mol/l DB21C7, Synthanol 5% / Fluoroheptanol n3 95%, solution No.1): 1.35% of the feedstock
- Cesium yield in a saltless product ([2]; dynamic conditions 7.2): about 95%
- Extraction of cesium ([2]; dynamic conditions 7.2): > 98%
- Concentration of nitric acid at the maximum of cesium extraction [3]: ~3.0 mol/l
- Distribution ratios of cesium ([3]; nitric acid 0 mol/l, Fluoroheptanol n3): 0.25
- Distribution ratios of cesium ([3]; nitric acid 0.1 mol/l): 1.0
- Distribution ratios of cesium ([3]; nitric acid 0.5 mol/l): 3.2
- Distribution ratios of cesium ([3]; nitric acid 1.0 mol/l): 7.8
- Distribution ratios of cesium ([3]; nitric acid 2.0 mol/l): 10.2
- Distribution ratios of cesium ([3]; nitric acid 3.0 mol/l): 12.2
- Distribution ratios of cesium ([3]; nitric acid 4.0 mol/l): 11.4
- Distribution ratios of cesium ([3]; nitric acid 5.0 mol/l): 10.0
- Distribution ratios of cesium ([3]; nitric acid 6.0 mol/l): 8.0
- Distribution ratios of cesium ([3]; nitric acid 7.0 mol/l): 6.2
- Distribution ratios of cesium ([3]; nitric acid 8.0 mol/l): 5.0
- Concentration of the crown ether in the extracted products ([4]; Re-extract): 53 Mg/l
- Concentration of the crown ether in the extracted products ([4]; Reclaim): 18 Mg/l
- Concentration of the crown ether in the extracted products ([4]; Refined product): 27 Mg/l

SMILES: C1CCC2OCCOCCOC3CCCCC3OCCOCCOC2C1 (stereo not drawn) [DCH18C6, bicyclohexane-18-crown-6]
- Contents of strontium in the extracted products, in percent of the feedstock ([5]; Re-extract): 99.55% of the feedstock
- Contents of strontium in the extracted products, in percent of the feedstock ([5]; Reclaim): <0.1% of the feedstock
- Contents of strontium in the extracted products, in percent of the feedstock ([5]; Refined product, 0.05 mol/l DCH18C6, Synthanol 20% / Fluoroheptanol n3 80%, solution No.1): 0.35% of the feedstock
- Average concentrating factor ([5]; dynamic mode 7.1): about 1.7 times
- Efficiency of the extraction of strontium ([5]; dynamic mode 7.1): exceeds 99%
- Distribution ratio Strontium [6]: 1.6

— patent US20080014133A1, “Extraction Of Radionuclides By Crown Ether-Containing Extractants” (priority 2004, published 2008)
